Source: patent US20020137891A1, “Protein scaffold and its use to multimerise monomeric polypeptides” (priority 1999, published 2002)

Tests used:
anti-GroEL antibodies = experiment: Anti-GroEL antibodies binding by ELISA; set-up: species or system rabbit; details: direct and indirect ELISA, different concentrations of antibodies, FIG. 6
Procedure: Anti-GroEL antibodies binding by ELISA. The same amount of proteins (1 μg) were coated as described above. […] ELISAs were developed as described above.

E. coli SV2 groEL44 = experiment: In vivo complementation of thermosensitive groEL mutant at 43° C., strain SV2; assay type: cell-based; details: pJC plasmid, relative to growth at 30° C.
Procedure: (§1) In vivo complementation experiments. Complementation experiments were performed by transforming electro-competent SV2 or SV6 cells with the pJC series of expression vectors and plating an aliquot of the transformation reactions directly at 43° C. The percentage of viable cells relative to the growth at 30° C. was determined. A representative number of clones which grew at 43° C. were incubated in absence of any selective markers at permissive temperature. After prolonged growth the loss of the pJC plasmids and the ts phenotype were verified. Each experiment was performed in duplicate. Plasmids carrying no groE genes or encoding the GroE proteins were used as negative or positive controls, respectively.

E. coli SV6 groEL673 = experiment: In vivo complementation of thermosensitive groEL mutant at 43° C., strain SV6; assay type: cell-based; details: pJC plasmid, relative to growth at 30° C.
Procedure: as §1

[1] = system: AI90 (ΔgroEL::kan^R) [pBADEL] E. coli strain; experiment: Plating ability of transformed AI90 (ΔgroEL::kan^R) [pBAD-EL] at 37° C. on depletion of GroEL; assay type: cell-based
Procedure: AI90 (ΔgroEL::kan^R) [pBAD-EL] cells were transformed with the pJC vector series. Transformants were selected at 37° C. on LB supplemented with 50 μg.ml^−1 of kanamycin, 120 μg.mL^−1 of ampicillin, 25 μg.mL^1 of chloramphenicol and 0.2% L(+)arabinose. Depletion of GroEL protein was analysed at 37° C. by plating the same quantity of AI90 [pBAD-EL+pJC vectors] cells on LB plates containing 1% D(+)glucose or various amount of arabinose.
Each experiment was performed in triplicate. Plasmids carrying no groE genes or encoding the GroE proteins were used as negative or positive controls, respectively.

bacteriophage T4 (T4D0) = experiment: Growth (plaque formation) of bacteriophage T4 at 37° C. in transformed wild-type and groEL mutant strains; assay type: cell-based, E. coli; set-up: key: +++: normal plaque-forming ability relative to wild-type groEL^+ strain, in terms of both number and size; ++: 5-fold fewer plaques relative to wild-type groEL^+ strain, or both; 10-fold fewer plaques, or plaque size reduced relative to wild-type groEL^+ strain, or both; +/−: 10^2-fold fewer plaques and plaque size reduced relative to wild-type groEL^+ strain; no visible plaques (<10^−4); details: pJC plasmid
Source text: Bacterial and bacteriophage strains. The E. coli strains used in this study were: C41(DE3), a mutant of BL21(DE3) capable of expressing toxic genes (Miroux, B. & Walker, J. E. (1996) J. Mol. Biol. 260, 289-298); SV2 (B178groEL44), SV3 (B178groEL59) and SV6 (B178groEL673): isogenic strains carrying temperature-sensitive alleles of groEL; SV1(=B178) (Georgopoulos, C., Hendrix, R. W., Casjens, S. R. & Kaiser, A. D. (1973) J. Mol. Biol. 76, 45-60), AI90 (ΔgroEL::kan^R) [pBAD-EL] (Ivic, A., Olden, D., Wallington, E. J. & Lund, P. A. (1997) Gene 194, 1-8), and TG1 (Gibson, T. J. (1984) Ph.D. thesis, University of Cambridge, U.K). Bacteriophage λb2cI (Zeilstra-Ryalls, J., Fayet, O., Baird, L. & Georgopoulos, C. (1993) J. Bacteriol. 175, 1134-1143) was used according to standard methods (Arber, W., Enquist, L., Hohn, B., Murray, N. E. & Murray, K. (1983) in Lambda II., ed. R. W. Hendrix, J. W. r., F. W. Stahl and R. A. Weisberg (Cold Spring Harbor Laboratory, Cold Spring Harbor, N.Y.), pp. 433-466); plaque formation was assayed at 30° C. T4D0, a derivative of bacteriophage T4 (Zeilstra-Ryalls, J., Fayet, O., Baird, L. & Georgopoulos, C. (1993) J. Bacteriol. 175, 1134-1143), was used according to standard methods (Karam, J. D. (1994) Molecular biology of bacteriophage T4. (American Society for Microbiology, Washington, D.C.)); plaque formation was assayed at 37° C.
Bacteriophage λ requires the chaperonins GroES and GroEL for protein folding during morphogenesis; bacteriophage T4 requires GroEL and Gp31, the latter being encoded by the bacteriophage genome (Zeilstra-Ryalls, J., Fayet, O. & Georgopoulos, C. (1991) Annu. Rev. Microbiol. 45, 301-325). Nine groE alleles which fail to support λ growth have been sequenced (Zeilstra-Ryalls, J., Fayet, O., Baird, L. & Georgopoulos, C. (1993) J. Bacteriol. 175, 1134-1143). We examined the ability of MC7, over-expressed from the constitutive tet promoter on a high-copy number vector (see FIG. 2), to complement three mutant groEL alleles for plaque formation by λ (b2cI) at 30° C. (Table 3) and T4 at 37° C. (Table 4).

SV2 [pBADGroES] = details: SV2 over-expressing GroES from pBAD
GroES = GroES (Escherichia coli, UniProt P0A6F9); details: read-out: apparent dissociation constant for the formation of the GroEL-GroES complex; cited from earlier work
Sequence of GroES (P0A6F9 whole entry): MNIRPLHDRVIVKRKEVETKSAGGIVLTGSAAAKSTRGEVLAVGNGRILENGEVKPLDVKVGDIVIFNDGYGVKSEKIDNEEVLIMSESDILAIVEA

Substance: GroEL (1-548): E. coli molecular chaperone, 14 subunits of 57.5 kD in two seven membered rings [reference compound]
- Detection by antibodies specific to GroEL (anti-GroEL antibodies): comparable detection levels
- Relative colony forming ability, SV2 groEL44 (E. coli SV2 groEL44): 1
- Relative colony forming ability, SV6 groEL673 (E. coli SV6 groEL673): 1
- Plating ability ([1]; 0.00 % L(+)arabinose): +++ (growth identical to that in presence of 0.2% L(+)arabinose (100%), in terms of both number and size)
- Plating ability ([1]; 0.01 % L(+)arabinose): +++ (growth identical to that in presence of 0.2% L(+)arabinose (100%), in terms of both number and size)
- Plating ability ([1]; 0.10 % L(+)arabinose): +++ (growth identical to that in presence of 0.2% L(+)arabinose (100%), in terms of both number and size)
- Plating ability ([1]; 0.15 % L(+)arabinose): +++ (growth identical to that in presence of 0.2% L(+)arabinose (100%), in terms of both number and size)
- Growth of bacteriophage T4, SV1 (groEL^+) (bacteriophage T4 (T4D0)): +++
- Growth of bacteriophage T4, SV2 groEL44 (bacteriophage T4 (T4D0)): +++
- Growth of bacteriophage T4, SV3 groEL59 (bacteriophage T4 (T4D0)): +++
- Growth of bacteriophage T4, SV6 groEL673 (bacteriophage T4 (T4D0)): +++
- Plaque size and number (SV2 [pBADGroES]): do not completely eliminate them
- Kd (GroES): 1000 nM
